Where two headings read alike, the source gives them in different places.
Experiments:
Human Full Length PARG = Human Full Length PARG (Homo sapiens (Human), UniProt Q86W56); assay: PARG enzyme assay (TR-FRET); type: biochemical
PARG in HeLa cell line = assay: PARG cell assay (PAR chain immunofluorescence after MMS); type: cell-based; conditions: HeLa cells
In short: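 Nuclear poly(ADP-ribose) chains in HeLa cells are read by indirect immunofluorescence with a mouse anti-PAR antibody applied overnight at 4° C after fixing and permeabilising. Cells get 1 h of compound, then 50 μg/mL MMS (final) for another hour. PAR persisting at that point reflects PARG inhibition.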

[1] = read-out: PARG Biochem IC50 Geomean
[2] = MMS 50 μg/mL, read-out: PARG Cell IC50 Geomean
[3] = Homo sapiens, MMS treatment, read-out: PARG Cell IC50
[4] = Homo sapiens, MMS 50 μg/mL, read-out: PARG Cell IC50 Geomean

Chain of Human Full Length PARG (Q86W56 whole entry): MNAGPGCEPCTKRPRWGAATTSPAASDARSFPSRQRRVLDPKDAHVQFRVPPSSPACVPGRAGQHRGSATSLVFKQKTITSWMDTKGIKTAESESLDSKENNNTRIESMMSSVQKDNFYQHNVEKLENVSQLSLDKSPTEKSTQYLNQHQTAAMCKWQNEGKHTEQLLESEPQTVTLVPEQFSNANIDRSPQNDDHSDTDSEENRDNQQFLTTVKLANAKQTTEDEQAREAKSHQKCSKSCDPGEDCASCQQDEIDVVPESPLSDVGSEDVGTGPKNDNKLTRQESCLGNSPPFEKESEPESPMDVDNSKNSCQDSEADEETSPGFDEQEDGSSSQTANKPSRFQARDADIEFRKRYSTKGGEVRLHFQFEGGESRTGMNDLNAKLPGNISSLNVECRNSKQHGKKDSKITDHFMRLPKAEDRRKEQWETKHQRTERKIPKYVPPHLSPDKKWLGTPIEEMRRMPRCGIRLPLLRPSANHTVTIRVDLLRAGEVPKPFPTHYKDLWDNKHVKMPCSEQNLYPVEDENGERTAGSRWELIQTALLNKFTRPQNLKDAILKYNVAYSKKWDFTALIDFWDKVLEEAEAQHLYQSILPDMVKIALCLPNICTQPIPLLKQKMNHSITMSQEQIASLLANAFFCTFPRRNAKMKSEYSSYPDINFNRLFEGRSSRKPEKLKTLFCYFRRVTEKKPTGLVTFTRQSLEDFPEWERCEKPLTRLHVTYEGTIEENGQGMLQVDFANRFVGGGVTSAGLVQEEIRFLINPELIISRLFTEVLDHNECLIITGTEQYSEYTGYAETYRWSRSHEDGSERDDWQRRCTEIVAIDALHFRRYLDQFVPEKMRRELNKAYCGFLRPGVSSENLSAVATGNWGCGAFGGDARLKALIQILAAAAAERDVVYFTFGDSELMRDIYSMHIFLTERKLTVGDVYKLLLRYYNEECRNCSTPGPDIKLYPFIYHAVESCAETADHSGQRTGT

IC50 (Human Full Length PARG; [1])	IC50 (PARG in HeLa cell line; [2])	IC50 (Human Full Length PARG; read-out: PARG Biochem IC50)	IC50 (PARG in HeLa cell line; [3])	IC50 (PARG in HeLa cell line; [4])	Structure (SMILES)
392 nM	178 nM	–	–	–	COCCCn1c(=O)n(Cc2cc(C)no2)c(=O)c2cc(S(=O)(=O)NC3(C)CC3)ccc21 [Example 251]
224 nM	314 nM	–	–	–	CN(C)CCn1c(=O)n(Cc2cnn(C)c2)c(=O)c2cc(S(=O)(=O)NC3(C)CC3)ccc21 [Example 235]
–	–	3850 nM	4500 nM	–	CON(C)C(=O)c1cc(S(=O)(=O)NC2(C)CC2)cc2c(=O)n(Cc3cnn(C)c3)c(=O)[nH]c12 [Example 451, N-Methoxy-N-methyl-6-[(1-methylcyclopropyl)sulfamoyl]-3-[(1-methylpyrazol-4-yl)methyl]-2,4-dioxo-1H-quinazoline-8-carboxamide]
57 nM	–	–	–	98 nM	Cn1cc(Cn2c(=O)c3cc(S(=O)(=O)NC4(C)CC4)ccc3n(CC3CCOCC3)c2=O)cn1 [Example 269]
25 nM	–	–	–	31 nM	Cn1cc(Cn2c(=O)c3cc(S(=O)(=O)NC4(C)CC4)c(F)cc3n(CC3CC3)c2=O)cn1 [Example 388]
–	–	3340 nM	1130 nM	–	Cc1ncc(Cn2c(=O)c3cc(S(=O)(=O)NC4(C)CC4)ccc3n(C)c2=O)cn1 [Example 433, 1-Methyl-N-(1-methylcyclopropyl)-3-[(2-methylpyrimidin-5-yl)methyl]-2,4-dioxo-quinazoline-6-sulfonamide]
302 nM	–	–	–	138 nM	Cc1ncc(Cn2c(OCC3CC3)nc3ccc(S(=O)(=O)NC4(C)CC4)cc3c2=O)s1 [Example 157]
175 nM	79 nM	–	–	–	Cc1cc(Cn2c(=O)c3cc(S(=O)(=O)NC4(C)CC4)ccc3n(CC3CCC3)c2=O)on1 [Example 288]
131 nM	–	–	–	229 nM	Cc1cc(Cn2c(=O)n(Cc3c(C)noc3C)c(=O)c3cc(S(=O)(=O)NC4(C)CC4)ccc32)n(C)n1 [Example 166]
28 nM	84 nM	–	–	–	Cn1cc(Cn2c(=O)c3cc(S(=O)(=O)NC4(C)CC4)c(F)cc3n(Cc3cnn(C)c3)c2=O)cn1 [Example 393, 7-Fluoro-N-(1-methylcyclopropyl)-1,3-bis[(1-methylpyrazol-4-yl)methyl]-2,4-dioxo-quinazoline-6-sulfonamide]
43 nM	–	–	–	1100 nM	Cc1cc(Cn2c(=O)n(Cc3cnn(C)c3)c(=O)c3cc(S(=O)(=O)NC4(C#N)CC4)ccc32)on1 [Example 359]
417 nM	–	–	–	772 nM	Cc1cc(Cn2c(=O)c3cc(S(=O)(=O)NC4(C)CC4)ccc3n(CCO)c2=O)on1 [Example 337]
–	–	38 nM	127 nM	–	Cn1cc(Cn2c(=O)c3cc(S(=O)(=O)NC4(CF)CC4)ccc3n(Cc3cnco3)c2=O)cn1 [Example 564, N-[1-(Fluoromethyl)cyclopropyl]-3-[(1-methylpyrazol-4-yl)methyl]-1-(oxazol-5-ylmethyl)-2,4-dioxo-quinazoline-6-sulfonamide]
38 nM	116 nM	–	–	–	Cc1cc(Cn2c(=O)c3cc(S(=O)(=O)NC4(C)CC4)ccc3n(Cc3cc(C)nn3C)c2=O)on1 [Example 207]
–	–	93 nM	153 nM	–	Cc1nnc(Cn2c(=O)n(Cc3cnn(C)c3)c(=O)c3cc(S(=O)(=O)NC4(CF)CC4)ccc32)s1 [Example 583, N-[1-(Fluoromethyl)cyclopropyl]-3-[(1-methylpyrazol-4-yl)methyl]-1-[(5-methyl-1,3,4-thiadiazol-2-yl)methyl]-2,4-dioxo-quinazoline-6-sulfonamide]
103 nM	–	–	–	98 nM	Cn1cc(Cn2c(=O)c3cc(S(=O)(=O)NC4(C)CC4)ccc3n(CC3CCCCO3)c2=O)cn1 (centres unmarked) [Example 257]
138 nM	–	–	–	195 nM	Cc1cc(Cn2c(=O)c3cc(S(=O)(=O)NC4(C)CC4)ccc3n(CC3CCOCC3)c2=O)on1 [Example 321]
160 nM	–	–	–	146 nM	Cc1noc(C)c1Cn1c(=O)c2cc(S(=O)(=O)NC3(C)CC3)ccc2n(Cc2ccc(F)cc2)c1=O [Example 168]
100 nM	193 nM	–	–	–	COc1cccc(Cn2c(=O)n(Cc3cnn(C)c3)c(=O)c3cc(S(=O)(=O)NC4(C)CC4)ccc32)c1 [Example 172]
128 nM	–	–	–	102 nM	COCCn1c(=O)n(Cc2cnn(C)c2)c(=O)c2cc(S(=O)(=O)NC3(C)CC3)ccc21 [Example 270]

IC50 (Human Full Length PARG; [1])	IC50 (PARG in HeLa cell line; [2])	IC50 (Human Full Length PARG; read-out: PARG Biochem IC50)	IC50 (PARG in HeLa cell line; [3])	IC50 (PARG in HeLa cell line; [4])	Structure (SMILES)
329 nM	–	–	–	113 nM	CCn1c(=O)n(Cc2cc(C)no2)c(=O)c2cc(S(=O)(=O)NC3(C)CC3)ccc21 [Example 304]
–	–	443 nM	807 nM	–	Cc1cc(Cn2c(=O)[nH]c3ccc(S(=O)(=O)NC4(CF)CC4)cc3c2=O)on1 [Example 516, N-[1-(Fluoromethyl)cyclopropyl]-3-[(3-methylisoxazol-5-yl)methyl]-2,4-dioxo-1H-quinazoline-6-sulfonamide]
–	–	3710 nM	1340 nM	–	CN(C)C(=O)Cn1c(=O)c2cc(S(=O)(=O)NC3(C)CC3)ccc2n(C)c1=O [Example 476, N,N-Dimethyl-2-[1-methyl-6-[(1-methylcyclopropyl)sulfamoyl]-2,4-dioxo-quinazolin-3-yl]acetamide]
–	–	330 nM	373 nM	–	Cc1ccnc(Cn2c(=O)n(Cc3cnn(C)c3)c(=O)c3cc(S(=O)(=O)NC4(CF)CC4)ccc32)c1 [Example 571, N-[1-(Fluoromethyl)cyclopropyl]-3-[(1-methylpyrazol-4-yl)methyl]-1-[(4-methyl-2-pyridyl)methyl]-2,4-dioxo-quinazoline-6-sulfonamide]
160 nM	–	–	–	30 nM	CSCCn1c(=O)n(Cc2cnn(C)c2)c(=O)c2cc(S(=O)(=O)NC3(C)CC3)ccc21 [Example 366]
–	–	63 nM	76 nM	–	Cn1cc(Cn2c(=O)c3cc(S(=O)(=O)NC4(CF)CC4)ccc3n(Cc3cocn3)c2=O)cn1 [Example 607, N-[1-(Fluoromethyl)cyclopropyl]-3-[(1-methylpyrazol-4-yl)methyl]-1-(oxazol-4-ylmethyl)-2,4-dioxo-quinazoline-6-sulfonamide]
–	–	73 nM	187 nM	–	Cc1cncc(Cn2c(=O)n(Cc3cnn(C)c3)c(=O)c3cc(S(=O)(=O)NC4(CF)CC4)ccc32)c1 [Example 539, N-[1-(Fluoromethyl)cyclopropyl]-3-[(1-methylpyrazol-4-yl)methyl]-1-[(5-methyl-3-pyridyl)methyl]-2,4-dioxo-quinazoline-6-sulfonamide]
–	–	127 nM	109 nM	–	Cn1cc(Cn2c(=O)c3cc(S(=O)(=O)NC4(CF)CC4)ccc3n(CC(F)F)c2=O)cn1 [Example 600, 1-(2,2-Difluoroethyl)-N-[1-(fluoromethyl)cyclopropyl]-3-[(1-methylpyrazol-4-yl)methyl]-2,4-dioxo-quinazoline-6-sulfonamide]
320 nM	–	–	–	341 nM	Cc1cc(Cn2c(=O)c3cc(S(=O)(=O)NC4(C)CC4)ccc3n(CC3(F)COC3)c2=O)on1 [Example 350]
331 nM	–	–	–	272 nM	Cc1cc(Cn2c(=O)c3cc(S(=O)(=O)NC4(C)CC4)ccc3n(CC(F)F)c2=O)on1 [Example 324]
–	–	100 nM	5290 nM	–	Cc1nc(Cn2c(=O)n(Cc3cnn(C)c3)c(=O)c3cc(S(=O)(=O)NC4(CF)CC4)ccc32)c[nH]1 [Example 568, N-[1-(Fluoromethyl)cyclopropyl]-1-[(2-methyl-1H-imidazol-4-yl)methyl]-3-[(1-methylpyrazol-4-yl)methyl]-2,4-dioxo-quinazoline-6-sulfonamide]
126 nM	–	–	–	208 nM	Cc1cc(Cn2c(=O)c3cc(S(=O)(=O)NC4(C)CC4)ccc3n(CC3CCSCC3)c2=O)on1 [Example 381]
–	–	348 nM	1030 nM	–	Cc1cc(Cn2c(=O)c3cc(S(=O)(=O)NC4(CF)CC4)ccc3n(Cc3nnc(C)o3)c2=O)on1 [Example 556, N-[1-(Fluoromethyl)cyclopropyl]-3-[(3-methylisoxazol-5-yl)methyl]-1-[(5-methyl-1,3,4-oxadiazol-2-yl)methyl]-2,4-dioxo-quinazoline-6-sulfonamide]
–	–	58 nM	67 nM	–	Cn1cc(Cn2c(=O)c3cc(S(=O)(=O)NC4(CF)CC4)ccc3n(CC3CC3(F)F)c2=O)cn1 (centres unmarked) [Example 443, 1-[(2,2-Difluorocyclopropyl)methyl]-N-[1-(fluoromethyl)cyclopropyl]-3-[(1-methylpyrazol-4-yl)methyl]-2,4-dioxo-quinazoline-6-sulfonamide]
252 nM	–	–	–	632 nM	Cc1cc(Cn2c(=O)c3cc(S(=O)(=O)NC4(C)CC4)ccc3n(CC3CCO3)c2=O)on1 (centres unmarked) [Example 349]
195 nM	–	–	–	351 nM	Cn1cc(Cn2c(=O)c3cc(S(=O)(=O)NC4(C)CC4)ccc3n(CC3CCO3)c2=O)cn1 (centres unmarked) [Example 343]
–	–	64 nM	50 nM	–	Cn1cc(Cn2c(=O)c3cc(S(=O)(=O)NC4(CF)CC4)ccc3n(CC3CCCC3)c2=O)cn1 [Example 608, 1-(Cyclopentylmethyl)-N-[1-(fluoromethyl)cyclopropyl]-3-[(1-methylpyrazol-4-yl)methyl]-2,4-dioxo-quinazoline-6-sulfonamide]
–	–	56 nM	41 nM	–	Cc1cc(Cn2c(=O)c3cc(S(=O)(=O)NC4(CF)CC4)ccc3n(CC3CC3)c2=O)on1 [Example 517, 1-(Cyclopropylmethyl)-N-[1-(fluoromethyl)cyclopropyl]-3-[(3-methylisoxazol-5-yl)methyl]-2,4-dioxo-quinazoline-6-sulfonamide]
124 nM	–	–	–	14300 nM	Cn1cc(Cn2c(=O)c3cc(S(=O)(=O)NC4(C#N)CC4)ccc3n(CC3(C)COC3)c2=O)cn1 [Example 376]
–	–	609 nM	1440 nM	–	Cc1cc(Cn2c(=O)c3cc(S(=O)(=O)NC4(C)CC4)ccc3n(CC3CNC3)c2=O)on1 [Example 415, 1-(Azetidin-3-ylmethyl)-N-(1-methylcyclopropyl)-3-[(3-methylisoxazol-5-yl)methyl]-2,4-dioxo-quinazoline-6-sulfonamide]

Reference: patent publication US10239843B2 (CANCER RESEARCH TECHNOLOGY LIMITED, priority 2014, dated 2019)
